The values that follow come from BindingDB's records for doi:10.1021/acs.jmedchem.5b01153 (University of Illinois At Chicago, 2016).

The term EC50 denotes the concentration needed to bring the measured effect to its halfway point.

Chain of 5-hydroxytryptamine receptor 2B (P41595 whole entry): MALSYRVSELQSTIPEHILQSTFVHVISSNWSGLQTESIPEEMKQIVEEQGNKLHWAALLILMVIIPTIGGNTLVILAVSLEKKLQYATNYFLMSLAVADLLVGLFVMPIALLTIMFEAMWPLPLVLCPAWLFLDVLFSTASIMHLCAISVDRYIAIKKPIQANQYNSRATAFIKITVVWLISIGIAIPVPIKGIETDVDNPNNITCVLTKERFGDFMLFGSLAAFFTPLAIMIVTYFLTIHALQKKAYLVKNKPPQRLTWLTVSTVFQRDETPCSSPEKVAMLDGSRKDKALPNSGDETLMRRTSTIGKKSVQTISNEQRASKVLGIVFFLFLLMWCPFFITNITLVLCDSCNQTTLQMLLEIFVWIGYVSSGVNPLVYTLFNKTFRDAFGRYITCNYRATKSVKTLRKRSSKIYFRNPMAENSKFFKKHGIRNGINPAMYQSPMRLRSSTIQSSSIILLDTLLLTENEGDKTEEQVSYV

The first test has as its target T1, 5-hydroxytryptamine receptor 2C (Homo sapiens, UniProt P28335).
T1 sequence (P28335 whole entry): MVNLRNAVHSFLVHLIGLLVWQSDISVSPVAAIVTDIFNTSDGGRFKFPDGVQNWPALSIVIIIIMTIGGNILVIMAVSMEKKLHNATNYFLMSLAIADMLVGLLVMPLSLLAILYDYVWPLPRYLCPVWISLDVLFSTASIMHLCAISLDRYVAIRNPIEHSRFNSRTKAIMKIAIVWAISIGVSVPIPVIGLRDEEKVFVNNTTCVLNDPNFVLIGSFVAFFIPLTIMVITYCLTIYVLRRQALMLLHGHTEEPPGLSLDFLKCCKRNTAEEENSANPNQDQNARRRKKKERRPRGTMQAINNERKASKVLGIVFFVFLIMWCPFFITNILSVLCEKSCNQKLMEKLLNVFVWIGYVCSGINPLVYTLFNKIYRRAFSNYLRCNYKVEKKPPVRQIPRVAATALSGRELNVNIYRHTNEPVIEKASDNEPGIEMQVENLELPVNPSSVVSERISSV
Description: Agonist activity at recombinant human 5HT2C-INI receptor expressed in Flp-In-293 cells assessed as calcium flux by FLIPR assay.
In the case of `NCC1CC1c1c(OCCF)ccc(Cl)c1Cl` (stereo unspecified), the EC50 worked out at 234 nM.
The same measure, in the same setting: as for `NCC1CC1c1c(OCCF)ccc(F)c1F` (stereo unspecified), the figure is 509 nM; as for `C=CCOc1cc(F)c(Cl)cc1C1CC1CN` (stereo unspecified), 308 nM.
Regarding `COc1ccc(F)c(F)c1C1CC1CN` (stereo unspecified), the 50% effective concentration (EC50) stood at 15 nM.
Take `NCC1CC1c1c(OCCF)ccc(Cl)c1F` (stereo unspecified): the EC50 stood at 386 nM.
Turning to `C=CCOc1ccc(F)c(F)c1C1CC1CN` (stereo unspecified), the EC50 was 151 nM.
Turning to `COc1ccc(Cl)c(Cl)c1C1CC1CN` (stereo unspecified), the EC50 worked out at 1.1 nM.
Consider `N[C@@H](Cc1c[nH]c2ccc(O)cc12)C(=O)O` [OXITRIPTAN], for which the half-maximal effective concentration (EC50) worked out at 0.219 nM.
Same read-out and setting: as for `COc1cc(Cl)c(Cl)cc1C1CC1CN` (stereo unspecified), the figure is 13 nM; as for `NCC1CC1c1cc(Cl)c(F)cc1OCCF` (stereo unspecified), 776 nM.

Another test addresses 5-hydroxytryptamine receptor 2B (Homo sapiens, UniProt P41595). As to the kind of experiment: Agonist activity at recombinant human 5HT2B receptor expressed in Flp-In-293 cells assessed as calcium flux by FLIPR assay. For orientation: Calcium assays in cells follow changes in intracellular calcium, usually with a dye or a luminescent sensor.
As to `C=CCOc1cc(F)c(Cl)cc1C1CC1CN` (stereo unspecified), the EC50 was 1950 nM.
